Assay results reported in ChEMBL document CHEMBL3885861, “Open TG-GATES”.

Organism: Rattus norvegicus
Assay: Open TG-GATES - Regimen: Single
Assay type: toxicity, organism-based, Sprague-Dawley
Design: regimen Single, gender Male, age 6 weeks
Conditions: in vivo, po, 200 mg/kg, route gavage, dose level High; for APTT / Bas / Eos / Fbg / Hb / Ht / Lym / MCH / MCHC / MCV / Mono / Neu / PT / Plat / RBC / Ret / WBC: tissue Blood; for KIDNEY_L / KIDNEY_R / KIDNEY_TOTAL: tissue Kidney; for LIVER: tissue Liver; for A/G / ALP / ALT / AST / BUN / CRE / Ca / Cl / DBIL / GLC / IP / K / LDH / Na / PL / RALB / TBIL / TC / TG / TP / gamma-GTP: tissue Plasma

Structure (SMILES): Cn1c(=O)c2[nH]cnc2n(C)c1=O.O [THEOPHYLLINE]
- TERMINAL_BW (3 h): 215.6 g
- APTT (3 h): 22.6 s
- Bas (3 h): 0%
- Eos (3 h): 1%
- Fbg (3 h): 278 mg/dL
- Hb (3 h): 12.3 g/dL
- Ht (3 h): 37.4%
- Lym (3 h): 67.2%
- MCH (3 h): 20.1 pg
- MCHC (3 h): 32.9%
- MCV (3 h): 60.9 fL
- Mono (3 h): 3%
- Neu (3 h): 28%
- PT (3 h): 15.9 s
- Plat (3 h): 113.5 x10_4/uL
- RBC (3 h): 614.2 x10_4/ul
- Ret (3 h): 7.9%
- WBC (3 h): 58.9 x10_2/uL
- KIDNEY_L (3 h): 0.9 g
- KIDNEY_R (3 h): 0.9 g
- KIDNEY_TOTAL (3 h): 1.8 g
- LIVER (3 h): 9.1 g
- A/G (3 h): 1.3
- ALP (3 h): 1241.4 IU/L
- ALT (3 h): 43.8 IU/L
- AST (3 h): 93.6 IU/L
- BUN (3 h): 13.8 mg/dL
- CRE (3 h): 0.1 mg/dL
- Ca (3 h): 10 mg/dL
- Cl (3 h): 104.4 meq/L
- DBIL (3 h): 0 mg/dL
- GLC (3 h): 202.8 mg/dL
- IP (3 h): 7.2 mg/dL
- K (3 h): 3.2 meq/L
- LDH (3 h): 215.8 IU/L
- Na (3 h): 136.8 meq/L
- PL (3 h): 109.8 mg/dL
- RALB (3 h): 3.1 g/dL
- TBIL (3 h): 0.014 mg/dL
- TC (3 h): 66.8 mg/dL
- TG (3 h): 20 mg/dL
- TP (3 h): 5.4 g/dL
- gamma-GTP (3 h): 1.8 IU/L
- TERMINAL_BW (6 h): 216 g
- APTT (6 h): 22.3 s
- Bas (6 h): 0%
- Eos (6 h): 0.2%
- Fbg (6 h): 329.2 mg/dL
- Hb (6 h): 13.1 g/dL
- Ht (6 h): 39.7%
- Lym (6 h): 58.6%
- MCH (6 h): 20.6 pg
- MCHC (6 h): 33.1%
- MCV (6 h): 62.3 fL
- Mono (6 h): 3.6%
- Neu (6 h): 35.6%
- PT (6 h): 15.5 s
- Plat (6 h): 123.7 x10_4/uL
- RBC (6 h): 636.8 x10_4/ul
- Ret (6 h): 7.6%
- WBC (6 h): 75.8 x10_2/uL
- KIDNEY_L (6 h): 1 g
- KIDNEY_R (6 h): 1 g
- KIDNEY_TOTAL (6 h): 1.9 g
- LIVER (6 h): 9.5 g
- A/G (6 h): 1.3
- ALP (6 h): 1423 IU/L
- ALT (6 h): 46.2 IU/L
- AST (6 h): 111.4 IU/L
- BUN (6 h): 13.8 mg/dL
- CRE (6 h): 0.2 mg/dL
- Ca (6 h): 10.4 mg/dL
- Cl (6 h): 108.2 meq/L
- DBIL (6 h): 0 mg/dL
- GLC (6 h): 206.6 mg/dL
- IP (6 h): 6.8 mg/dL
- K (6 h): 3.5 meq/L
- LDH (6 h): 212.6 IU/L
- Na (6 h): 140.2 meq/L
- PL (6 h): 127 mg/dL
- RALB (6 h): 3.4 g/dL
- TBIL (6 h): 0.016 mg/dL
- TC (6 h): 72 mg/dL
- TG (6 h): 22.2 mg/dL
- TP (6 h): 6.1 g/dL
- gamma-GTP (6 h): 1.4 IU/L
- TERMINAL_BW (9 h): 212.2 g
- APTT (9 h): 24.6 s
- Bas (9 h): 0%
- Eos (9 h): 0%
- Fbg (9 h): 335.8 mg/dL
- Hb (9 h): 12.9 g/dL
- Ht (9 h): 38.7%
- Lym (9 h): 69.4%
- MCH (9 h): 20.3 pg
- MCHC (9 h): 33.4%
- MCV (9 h): 60.9 fL
- Mono (9 h): 1.4%
- Neu (9 h): 28.6%
- PT (9 h): 15.5 s
- Plat (9 h): 120.5 x10_4/uL
- RBC (9 h): 634.8 x10_4/ul
- Ret (9 h): 7.6%
- WBC (9 h): 51.8 x10_2/uL
- KIDNEY_L (9 h): 0.9 g
- KIDNEY_R (9 h): 0.9 g
- KIDNEY_TOTAL (9 h): 1.8 g
- LIVER (9 h): 8.7 g
- A/G (9 h): 1.3
- ALP (9 h): 1474.4 IU/L
- ALT (9 h): 38.8 IU/L
- AST (9 h): 86.2 IU/L
- BUN (9 h): 12 mg/dL
- CRE (9 h): 0.2 mg/dL
- Ca (9 h): 10.8 mg/dL
- Cl (9 h): 105 meq/L
- DBIL (9 h): 0 mg/dL
- GLC (9 h): 193.6 mg/dL
- IP (9 h): 7.1 mg/dL
- K (9 h): 3.5 meq/L
- LDH (9 h): 182.8 IU/L
- Na (9 h): 139 meq/L
- PL (9 h): 141 mg/dL
- RALB (9 h): 3.4 g/dL
- TBIL (9 h): 0.026 mg/dL
- TC (9 h): 77.4 mg/dL
- TG (9 h): 30.6 mg/dL
- TP (9 h): 6.2 g/dL
- gamma-GTP (9 h): 1.2 IU/L
- TERMINAL_BW (24 h): 224.5 g
- APTT (24 h): 21.6 s
- Bas (24 h): 0%
- Eos (24 h): 0.4%
- Fbg (24 h): 370.4 mg/dL
- Hb (24 h): 13.9 g/dL
- Ht (24 h): 41.2%
- Lym (24 h): 70.2%
- MCH (24 h): 20.7 pg
- MCHC (24 h): 33.6%
- MCV (24 h): 61.4 fL
- Mono (24 h): 3.2%
- Neu (24 h): 24%
- PT (24 h): 16.3 s
- Plat (24 h): 124.1 x10_4/uL
- RBC (24 h): 670.4 x10_4/ul
- Ret (24 h): 7%
- WBC (24 h): 103.6 x10_2/uL
- KIDNEY_L (24 h): 0.9 g
- KIDNEY_R (24 h): 1 g
- KIDNEY_TOTAL (24 h): 1.9 g
- LIVER (24 h): 9.4 g
- A/G (24 h): 1.2
- ALP (24 h): 1552.6 IU/L
- ALT (24 h): 44.8 IU/L
- AST (24 h): 76.2 IU/L
- BUN (24 h): 16.4 mg/dL
- CRE (24 h): 0.2 mg/dL
- Ca (24 h): 11.2 mg/dL
- Cl (24 h): 104.4 meq/L
- DBIL (24 h): 0 mg/dL
- GLC (24 h): 186.4 mg/dL
- IP (24 h): 8.4 mg/dL
- K (24 h): 4 meq/L
- LDH (24 h): 180 IU/L
- Na (24 h): 141.6 meq/L
- PL (24 h): 129.8 mg/dL
- RALB (24 h): 3.1 g/dL
- TBIL (24 h): 0.018 mg/dL
- TC (24 h): 75 mg/dL
- TG (24 h): 38.8 mg/dL
- TP (24 h): 5.6 g/dL
- gamma-GTP (24 h): 1.4 IU/L
